What was measured:
Assay type in all cases: cell-based
[1] = tested on: Wnt activity; assay: Wnt activity screening assay, Sp5-Luc reporter gene in SW480 cells; conditions: Homo sapiens; for EC50: Sp5-Luc reporter, SW480 cells, overnight incubation; for inhibition at 10 µM: SW480, read-out: percent inhibition at 10 μM
Text: The screening assay for Wnt activity is described as follows. Reporter cell lines can be generated by stably transducing cancer cell lines (e.g., colon cancer) or primary cells (e.g., IEC-6 intestinal cells) with a lentiviral construct that includes a Wnt-responsive promoter driving expression of the firefly luciferase gene.
SW480 colon carcinoma cells were transduced with a lentiviral vector expressing luciferase with a human Sp5 promoter consisting of a sequence of eight TCF/LEF binding sites. SW480 cells stably expressing the Sp5-Luc reporter gene and a hygromycin resistance gene were selected by treatment with 150 μg/mL of hygromycin for 7 days. These stably transduced SW480 cells were expanded in cell culture and used for all further screening activities. […] For Sp5-Luc reporter gene assays, the cells were plated at 4,000 cells/well in 384-well plates with medium containing 1% fetal bovine serum and incubated overnight at 37° C. and 5% CO2. Following incubation, 20 μl of BrightGlo luminescence reagent (Promega) was added to each well of the 384-well assay plates. The plates were placed on an orbital shaker for 2 min and then luminescence was quantified using the Envision (Perkin Elmer) plate reader. Readings were normalized to DMSO only treated cells, and normalized activities were utilized for EC50 calculations using the dose-response log (inhibitor) vs. response -variable slope (four parameters) nonlinear regression feature available in GraphPad Prism 5.0 (or Dotmatics).

[2] = tested on: SW480 colon cancer cells; assay: Cell viability assay (CellTiter-Blue) in SW480 colon cancer cells; conditions: Homo sapiens; for EC50: 96 h, SW480 cell viability, four days, CellTiter-Blue; for inhibition at 10 µM: SW480, read-out: percent inhibition at 10 μM
Procedure: Representative compounds were screened using the following assay procedure to assess the effect on cell viability as described below.
Approximately 2×10^3 SW480 colon cancer cells were seeded into each well and allowed to incubate in the presence or absence of compound for four days at 37° C./5% CO2. Eight replicates of DMSO-treated cells served as controls and cells treated with compound were performed in duplicate.
After incubation, 20 μL of CellTiter-Blue (Promega) was added to each well allowed to incubate for approximately 3 hours. This reagent was a buffered solution which contains resazurin, metabolically active cells were able to reduce rezarurin (blue) into resorufin (pink) which was highly fluorescent. This measured fluorescence was used as a readout for cell viability.

[3] = tested on: primary human fibroblasts derived from IPF patients (LL29 cells); assay: Inhibition of the fibrotic process: αSMA staining in TGF-β1 treated LL29 fibroblasts; conditions: Fibroblast; for EC50: 96 h, LL29 cells, TGF-β1 20 ng/mL, 4 days, % αSMA positive cells; for inhibition at 10 µM: read-out: percent inhibition at 10 μM
Procedure: Representative compounds were screened using primary human fibroblasts (derived from IPF patients) treated with TGF-β1 to determine their ability to inhibit the fibrotic process.
LL29 cells are plated at 1,500 cells/well in 80 μL/well F12 medium supplemented with 1% Fetal Bovine Serum. […] Wells treated with TGF-β1 and containing DMSO were used as controls. […] Following incubation for 4 days, SYTOX green nucleic acid stain (Life Technologies [Thermo Fisher Scientific]) was added to the wells at a final concentration of 1 μM and incubated at room temperature for 30 min.

[4] = tested on: IL-6; assay: IL-6 inhibition in LPS-stimulated THP-1 cells (HTRF); conditions: Homo sapiens; for EC50: THP-1 cells, LPS 500 ng/mL, 22 hours, IL6 HTRF; for inhibition at 10 µM: THP-1, read-out: percent inhibition at 10 μM
Procedure: THP-1 cells were cultured in basal media with 1% FBS for 24 hours before the start of the assay. […] THP-1 cells were plated at 5000 cells/well in the 384-well plates and incubated at 37° C. for 2 h. 500 ng/mL of LPS was added after 2 hours and cells were incubated for another 22 hours at 37° C. Plates were spun in a centrifuge for 1 minute at […] and a mixture of anti-IL6 XL665, and anti-IL6 Cryptate diluted in reconstitution buffer (Cisbio Inc.) was added to each well. Following incubation for 3 hrs at room temperature, Homogeneous Time-Resolved Fluorescence (HTRF) was measured using the Envision (Perkin Elmer) at 665 nm and […]. The ratio of fluorescence at 665 nm to 620 nm was used as a readout for IL6 quantification. All samples were processed in duplicate. Readings were normalized to DMSO treated cells and normalized activities were utilized for EC50 calculations using the dose-response log (inhibitor) vs. response -variable slope (four parameters) nonlinear regression feature available in GraphPad Prism 5.0 (or Dotmatics).

SMILES	EC50 [1] [µM]	EC50 [2] [µM]	inhibition at 10 µM [2] [%]	EC50 [3] [µM]	EC50 [4] [µM]	inhibition at 10 µM [1] [%]	inhibition at 10 µM [3] [%]	inhibition at 10 µM [4] [%]
CC(C)Nc1cncc(-c2cc3c(-c4cc5c(-c6cccnc6)cncc5[nH]4)n[nH]c3cn2)c1 [Compound 96, N-Isopropyl-5-(3-(4-(pyridin-3-yl)-1H-pyrrolo[2,3-c]pyridin-2-yl)-1H-pyrazolo[3,4-c]pyridin-5-yl)pyridin-3-amine]	0.94	> 10	25.2	0.624	3.15			
CCCCC(=O)Nc1cncc(-c2cc3c(-c4cc5c(-c6ccncc6)cncc5[nH]4)n[nH]c3cn2)c1 [Compound 131, N-(5-(3-(4-(Pyridin-4-yl)-1H-pyrrolo[2,3-c]pyridin-2-yl)-1H-pyrazolo[3,4-c]pyridin-5-yl)pyridin-3-yl)pentanamide]	> 10	> 10	17.8	> 10	> 10	13.1	8.3	20.6
CS(=O)(=O)NCc1cc(F)cc(-c2cncc3[nH]c(-c4n[nH]c5cnc(-c6cncc(NC(=O)C7CCCCC7)c6)cc45)cc23)c1 [Compound 499, N-(5-(3-(4-(3-Fluoro-5-(methylsulfonamidomethyl)phenyl)-1H-pyrrolo[2,3-c]pyridin-2-yl)-1H-pyrazolo[3,4-c]pyridin-5-yl)pyridin-3-yl)cyclohexanecarboxamide]	> 10	> 10	15.5	> 10	> 10	11.3	0	36.6
Cc1ccncc1-c1cc2c(-c3cc4c(-c5ccc(F)cc5)cncc4[nH]3)n[nH]c2cn1 [Compound 33, 3-(4-(4-Fluorophenyl)-1H-pyrrolo[2,3-c]pyridin-2-yl)-5-(4-methylpyridin-3-yl)-1H-pyrazolo[3,4-c]pyridine]	1.84	1.09		0.333	4.58			
CC(C)CC(=O)Nc1cncc(-c2cc3c(-c4cc5c(-c6ccncc6)cncc5[nH]4)n[nH]c3cn2)c1 [Compound 114, 3-Methyl-N-(5-(3-(4-(pyridin-4-yl)-1H-pyrrolo[2,3-c]pyridin-2-yl)-1H-pyrazolo[3,4-c]pyridin-5-yl)pyridin-3-yl)butanamide]	> 10	> 10	14.2	> 10	> 10	15.1	23	11.6
c1cncc(-c2cncc3[nH]c(-c4n[nH]c5cnc(C6CCNCC6)cc45)cc23)c1 [Compound 553, 5-(Piperidin-4-yl)-3-(4-(pyridin-3-yl)-1H-pyrrolo[2,3-c]pyridin-2-yl)-1H-pyrazolo[3,4-c]pyridine]	> 10	> 10	11	1.19	> 10	8.3		18.1
CC(C)Nc1cncc(-c2cc3c(-c4cc5c(-c6ccc(F)cc6)cncc5[nH]4)n[nH]c3cn2)c1 [Compound 40, 5-(3-(4-(4-Fluorophenyl)-1H-pyrrolo[2,3-c]pyridin-2-yl)-1H-pyrazolo[3,4-c]pyridin-5-yl)-N-isopropylpyridin-3-amine]	0.937	1.29		0.141	2.47			
Fc1ccccc1-c1cncc2[nH]c(-c3n[nH]c4cnc(-c5cn[nH]c5)cc34)cc12 [Compound 539, 3-(4-(2-Fluorophenyl)-1H-pyrrolo[2,3-c]pyridin-2-yl)-5-(1H-pyrazol-4-yl)-1H-pyrazolo[3,4-c]pyridine]	> 10	> 10	3.6	2.43	> 10	8.6		0
O=C(Cc1ccccc1)Nc1cncc(-c2cc3c(-c4cc5c(-c6cccnc6)cncc5[nH]4)n[nH]c3cn2)c1 [Compound 94, 2-Phenyl-N-(5-(3-(4-(pyridin-3-yl)-1H-pyrrolo[2,3-c]pyridin-2-yl)-1H-pyrazolo[3,4-c]pyridin-5-yl)pyridin-3-yl)acetamide]	> 10	> 10	28.9	> 10	3.05	12.2	0	
CC(C)(C)CC(=O)Nc1cncc(-c2cc3c(-c4cc5c(-c6cc(F)cc(CNS(C)(=O)=O)c6)cncc5[nH]4)n[nH]c3cn2)c1 [Compound 492, N-(5-(3-(4-(3-Fluoro-5-(methylsulfonamidomethyl)phenyl)-1H-pyrrolo[2,3-c]pyridin-2-yl)-1H-pyrazolo[3,4-c]pyridin-5-yl)pyridin-3-yl)-3,3-dimethylbutanamide]	> 10	> 10	16.3	> 10	> 10	14.6	0	29
O=C(Nc1cncc(-c2cc3c(-c4cc5c(-c6ccccc6F)cncc5[nH]4)n[nH]c3cn2)c1)C1CCCCC1 [Compound 79, N-(5-(3-(4-(2-Fluorophenyl)-1H-pyrrolo[2,3-c]pyridin-2-yl)-1H-pyrazolo[3,4-c]pyridin-5-yl)pyridin-3-yl)cyclohexanecarboxamide]	3.25	1.73		1.08	9.56			
CC(C)CC(=O)Nc1cncc(-c2cc3c(-c4cc5c(-c6cccc(F)c6)cncc5[nH]4)n[nH]c3cn2)c1 [Compound 2, N-(5-(3-(4-(3-Fluorophenyl)-1 H-pyrrolo[2,3-c]pyridin-2-yl)-1 H-pyrazolo[3,4-c]pyridin-5-yl)pyridin-3-yl)-3-methylbutanamide]	> 10	> 10	25.4	2.23	> 10	5.6		37.2
CCC(=O)Nc1cncc(-c2cc3c(-c4cc5c(-c6ccc(F)cc6)cncc5[nH]4)n[nH]c3cn2)c1 [Compound 29, N-(5-(3-(4-(4-Fluorophenyl)-1H-pyrrolo[2,3-c]pyridin-2-yl)-1H-pyrazolo[3,4-c]pyridin-5-yl)pyridin-3-yl)propionamide]	> 10	> 10	29.6	> 10	> 10	37.8	49.1	43
FC1(F)CCN(Cc2cncc(-c3cc4c(-c5cc6c(-c7cccs7)cncc6[nH]5)n[nH]c4cn3)c2)C1 [Compound 362, 5-(5-((3,3-Difluoropyrrolidin-1-yl)methyl)pyridin-3-yl)-3-(4-(thiophen-2-yl)-1H-pyrrolo[2,3-c]pyridin-2-yl)-1H-pyrazolo[3,4-c]pyridine]	5.24	4.1		1.16	1.32			
CN(C)CCOc1cncc(-c2cc3c(-c4cc5c(-c6cccs6)cncc5[nH]4)n[nH]c3cn2)c1 [Compound 707, N,N-Dimethyl-2-((5-(3-(4-(thiophen-2-yl)-1H-pyrrolo[2,3-c]pyridin-2-yl)-1H-pyrazolo[3,4-c]pyridin-5-yl)pyridin-3-yl)oxy)ethan-1-amine]	> 10	> 10	0	5.1	> 10	5		41.3

From US10383861B2, “3-(1H-pyrrolo[2,3-C]pyridin-2-yl)-1H-pyrazolo[3,4-C]pyridines and therapeutic uses thereof” (Samumed, LLC, priority 2015, dated 2019)
